Test results from paper PMC4728068, “Mixture Effects of Estrogenic Pesticides at the Human Estrogen Receptor α and β” (PLoS ONE, 2016).
In brackets after ≈: the same amount, converted by molar mass.

What was measured:
MCF-7 cells [1] = settings: with or without E2; 27 (pirimicarb), ref 11 (propamocarb); cited from earlier work
hERβ = target: T1, hERβ (Homo sapiens, UniProt Q92731); assay: ERβ CALUX assay (U2-OS cell-based luciferase reporter gene); settings: for estrogenic activity at the hERβ in the ERβ CALUX assay (in words): applied alone; for ERβ CALUX EC01 / ERβ CALUX EC10: single substances; for ERβ CALUX EC01: 1% effect (of 1 nM E2); for ERβ CALUX EC10: 10% effect (of 1 nM E2)
T1 construct: expressed in transfected cells; host or cells: human U2-OS cells
Protocol: (§1) The ERα and ERβ CALUX assay were performed to evaluate the effect of the test substances on the hERα and hERβ as described by van der Burg et al. [21] with slight modifications. The pesticides were tested in three independent experiments, individually and as mixtures, in triplicates in 96-well plates. DMSO was used as solvent and was present in the test medium at a maximal concentration of 0.2% v/v. Solvent controls were included in each plate. […] The same plate also contained 3 μM 17α-methyltestosterone as additional estrogenic control as well as 10 nM corticosterone as negative control. […] A prescreen, in which all test substances were tested for estrogenicity between 0.01 μM and 60 μM, was performed. The three highest test substance concentrations and controls were checked for their ability to affect cell membrane integrity by quantification of the lactate dehydrogenase leakage (LDH) with the CytoTox-ONE™ Homogeneous Membrane Integrity Assay (Promega, Madison, WI, USA), which was performed as recommended by the manufacturer. Those test substance concentrations leading to a decline of the effect after a maximum was reached as well as those leading to insolubility were excluded from further experiments.
(§2) Normalized concentration-response data from the YES, ERα and ERβ CALUX assays were analyzed by nonlinear regression after the x-axis with the test substance concentrations was log-transformed. […] All mathematical/statistical analyses were performed using R version 3.1.2 (R Foundation for Statistical Computing, Vienna, Austria).

[2] = Insolubility in the YES assay medium (turbidity at 690 nm, cell-free control plate); settings: for solubility: kinetic from dmso stock
Description: (§3) It should be taken into account that an increased turbidity could also mask cytotoxicity.
The concentrations of the test substances to be tested were limited depending on their solubility. […] A decrease of turbidity in the YES assay was assumed to be equivalent to an inhibition of yeast cell growth.

[3] = target: T2, human estrogen receptor α (hERα) (Homo sapiens, UniProt P03372); assay: Yeast-based estrogen screen (YES) assay, β-galactosidase reporter gene; type: cell-based; settings: for YES EC01 / YES EC10: single substances; for YES EC01: concentration needed to elicit a 1% effect of 1 nM E2; for YES EC10: concentration needed to elicit a 10% effect of 1 nM E2
T2 construct: expressed in transfected cells
Protocol: as §3, §2

hERα [4] = target: T3, hERα (Homo sapiens, UniProt P03372); assay: YES assay in combination with a saturating concentration of E2 (1 nM): anti-estrogenic or potentiating effects; type: cell-based, yeast; settings: for effect when combined with 1 nM E2 in the YES assay (in words): saturating 1 nM E2; for maximum to which the effect of 1 nM E2 was enhanced: YES assay, combined with 1 nM E2, normalized to 1 nM E2
Protocol: Each pesticide and pesticide mixture was tested in quadruplicate in at least five experiments.

hERα [5] = target: T3, hERα; settings: in combination with 3 pM E2
miR-21 = settings: cited from earlier work
MCF-7 cells [6] = settings: cited from earlier work
hERα [7] = target: T3, hERα; assay: ERα CALUX assay (U2-OS cell-based luciferase reporter gene); parameters: expressed in transfected cells; host or cells: human U2-OS cells; settings: for ERα CALUX EC01: 1% effect (of 1 nM E2); for ERα CALUX EC10: 10% effect (of 1 nM E2)
Protocol: as §1, §2

yeast cells = assay: Cytotoxicity in the YES assay (decrease in optical density/turbidity at 690 nm); type: cell-based; settings: assumed equivalent to inhibition of yeast cell growth, data not shown
estrogen receptor = tested on: estrogen receptor; parameters: method as in PMID 11884232; settings: in combination with a saturating concentration of E2; cited from earlier work
MCF-7 cells [8] = tested on: MCF-7 cells; parameters: method as in PMID 10789375; settings: cited from earlier work

T2 sequence (P03372 whole entry): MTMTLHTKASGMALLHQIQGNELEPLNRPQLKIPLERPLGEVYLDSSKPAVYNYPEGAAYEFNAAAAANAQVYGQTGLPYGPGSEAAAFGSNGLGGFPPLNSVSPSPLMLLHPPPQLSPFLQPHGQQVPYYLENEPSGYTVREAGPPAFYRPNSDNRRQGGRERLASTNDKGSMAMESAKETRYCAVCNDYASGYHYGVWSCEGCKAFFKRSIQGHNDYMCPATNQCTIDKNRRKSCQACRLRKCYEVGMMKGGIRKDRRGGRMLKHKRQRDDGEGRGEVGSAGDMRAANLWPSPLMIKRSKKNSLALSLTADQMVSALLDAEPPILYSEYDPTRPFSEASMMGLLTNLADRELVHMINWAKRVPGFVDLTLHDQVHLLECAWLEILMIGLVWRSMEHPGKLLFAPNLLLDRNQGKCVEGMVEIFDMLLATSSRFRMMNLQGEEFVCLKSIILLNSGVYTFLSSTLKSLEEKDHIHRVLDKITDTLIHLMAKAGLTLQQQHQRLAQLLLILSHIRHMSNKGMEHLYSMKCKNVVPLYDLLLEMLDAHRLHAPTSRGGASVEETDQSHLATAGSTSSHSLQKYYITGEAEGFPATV
T3 sequence (P03372 whole entry): as above
T1 sequence (Q92731 whole entry): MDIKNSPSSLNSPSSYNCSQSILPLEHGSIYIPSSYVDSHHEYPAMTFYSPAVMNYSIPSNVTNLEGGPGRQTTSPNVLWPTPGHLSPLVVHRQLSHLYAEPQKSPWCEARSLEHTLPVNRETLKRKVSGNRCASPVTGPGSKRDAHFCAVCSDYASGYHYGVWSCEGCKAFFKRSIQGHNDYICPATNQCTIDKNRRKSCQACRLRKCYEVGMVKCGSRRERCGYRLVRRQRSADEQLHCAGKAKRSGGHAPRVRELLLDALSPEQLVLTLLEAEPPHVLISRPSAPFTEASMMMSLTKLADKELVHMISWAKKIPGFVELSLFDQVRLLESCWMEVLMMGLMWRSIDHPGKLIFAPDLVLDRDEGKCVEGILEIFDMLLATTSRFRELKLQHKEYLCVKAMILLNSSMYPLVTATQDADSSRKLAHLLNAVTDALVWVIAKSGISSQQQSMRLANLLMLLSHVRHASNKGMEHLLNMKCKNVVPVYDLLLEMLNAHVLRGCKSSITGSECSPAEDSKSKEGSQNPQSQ

Row | SMILES | estrogenic activity at the hERβ in the ERβ CALUX assay (in words) (hERβ) | ERβ CALUX EC01 (hERβ) [µM] | ERβ CALUX EC10 (hERβ) [µM] | YES EC01 [3] [nM] | ERα CALUX EC01 (hERα [7]; single substances) [nM] | ERα CALUX EC10 (hERα [7]; single substances) [µM] | solubility [2] [µM] | other results
1 | CCCOC(=O)NCCCN(C)C [propamocarb] | – | – | – | – | – | – | – | proliferation of MCF-7 cells in the E-Screen (MCF-7 cells [1]): did not stimulate the proliferation of MCF-7 cells
2 | Clc1ccc(C(c2ccc(Cl)cc2)C(Cl)(Cl)Cl)cc1 [4,4’-DDT, 4,4’- dichlorodiphenyltrichloroethane] | dose-dependent estrogenic activity | 1.02 | – | – | – | – | – | concentrations leading to insolubility (tested in the YES assay) ([2]; YES assay medium): 50 to 500 µM
3 | Clc1ccc(C(c2ccccc2Cl)C(Cl)(Cl)Cl)cc1 (stereo not shown) [2,4’-DDT, 2,4’-dichlorodiphenyltrichloroethane] | dose-dependent estrogenic activity | 0.055 | 0.603 | – | – | – | – | –
4 | N#Cc1c[nH]cc1-c1cccc2c1OC(F)(F)O2 [fludioxonil] | – | – | – | 832 | 363 | 1.26 | 100 to 500 (≈ 24.8 to 124 µg/mL) | YES EC10 [3]: 26.3 µM; inhibition of the E2 effect in the YES assay (hERα [4]; in combination with 1 nM E2): 44%; effect when combined with 1 nM E2 in the YES assay (in words) (hERα [4]): concentration-dependent anti-estrogenic effects; anti-estrogenic effect in the ERα CALUX assay (in words) (hERα [5]): an anti-estrogenic effect was not observed; miR-21 expression in breast cancer cells (miR-21): increase of miR-21 expression; E2-induced cell proliferation in MCF-7 cells (MCF-7 cells [6]): inhibition of E2-induced cell proliferation
5 | CC1(C(=O)Nc2ccc(O)c(Cl)c2Cl)CCCCC1 [fenhexamid] | dose-dependent estrogenic activity | 1.17 | 5.01 | – | – | – | 100 (≈ 30.2 µg/mL) | concentrations decreasing turbidity by more than 30% in comparison to the solvent control (yeast cells): ≥ 500 µM; miR-21 expression in breast cancer cells (miR-21): increase of miR-21 expression; E2-induced cell proliferation in MCF-7 cells (MCF-7 cells [6]): inhibition of E2-induced cell proliferation
6 | Cc1nc(N(C)C)nc(OC(=O)N(C)C)c1C [pirimicarb] | – | – | – | – | – | – | – | estrogenic activity in the YES assay (in words) ([3]; applied alone): negative; effect when combined with 1 nM E2 in the YES assay (in words) (hERα [4]): negative; proliferation of MCF-7 cells in the E-Screen (MCF-7 cells [1]): did not stimulate the proliferation of MCF-7 cells; effect in transactivation assay with MCF-7 BOS cells (estrogen receptor): induced a stronger effect; estrogenic activity in the ERα CALUX assay (in words) (hERα [7]; applied alone): negative
7 | OC(c1ccc(Cl)cc1)(c1cncnc1)c1ccccc1Cl (stereo not shown) [fenarimol] | dose-dependent estrogenic activity | 3.63 | 13.5 | 11700 | 794 | 2.82 | – | maximum effect normalized to the effect of 1 nM E2 ([3]; single substance, YES assay): 2.69; YES EC10 [3]: 21.9 µM; maximum to which the effect of 1 nM E2 was enhanced (hERα [4]): 4.36; effect in MCF-7 proliferation assay compared with E2 (MCF-7 cells [8]): without exceeding the effect of E2; maximum effect relative to the effect of 0.1 nM E2 (hERα [7]; single substances, ERα CALUX assay): 1.17
8 | CCOP(=S)(OCC)Oc1nc(Cl)c(Cl)cc1Cl [chlorpyrifos] | – | – | – | 79.4 | 617 | 3.47 | 100 to 1000 (≈ 35.1 to 351 µg/mL) | maximum to which the effect of 1 nM E2 was enhanced (hERα [4]): 1.84; effect in MCF-7 proliferation assay compared with E2 (MCF-7 cells [8]): without exceeding the effect of E2
